In publication PMC9400797 (Cell, 2022):
pIC50: −log10 of the molar value.

Experiments:
[1] = target: T1, cannabinoid receptor 1 (CB1) (Homo sapiens, UniProt P21554); assay: CB1 radioligand binding assay
Target sequence in this assay (P21554 whole entry): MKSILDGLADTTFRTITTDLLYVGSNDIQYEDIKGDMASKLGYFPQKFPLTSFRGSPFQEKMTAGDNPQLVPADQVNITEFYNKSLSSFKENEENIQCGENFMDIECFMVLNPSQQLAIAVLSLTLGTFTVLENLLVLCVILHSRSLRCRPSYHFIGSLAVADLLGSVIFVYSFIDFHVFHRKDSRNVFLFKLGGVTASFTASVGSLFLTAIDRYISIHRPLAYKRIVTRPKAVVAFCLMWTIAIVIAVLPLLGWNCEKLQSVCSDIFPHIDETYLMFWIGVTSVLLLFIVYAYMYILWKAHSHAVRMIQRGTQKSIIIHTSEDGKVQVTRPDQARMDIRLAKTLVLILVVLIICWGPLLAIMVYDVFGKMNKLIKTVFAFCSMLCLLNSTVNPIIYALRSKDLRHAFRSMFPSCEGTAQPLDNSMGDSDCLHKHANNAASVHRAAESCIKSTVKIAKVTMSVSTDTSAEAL

[2] = target: T1, cannabinoid receptor 1 (CB1); assay: GTPase-Glo GTP turnover assay with purified CB1 and Gi1, […] ligand; assay type: biochemical
Target sequence in this assay (P21554 whole entry): as above
Target sequence in this assay (P63096 2-354 partner): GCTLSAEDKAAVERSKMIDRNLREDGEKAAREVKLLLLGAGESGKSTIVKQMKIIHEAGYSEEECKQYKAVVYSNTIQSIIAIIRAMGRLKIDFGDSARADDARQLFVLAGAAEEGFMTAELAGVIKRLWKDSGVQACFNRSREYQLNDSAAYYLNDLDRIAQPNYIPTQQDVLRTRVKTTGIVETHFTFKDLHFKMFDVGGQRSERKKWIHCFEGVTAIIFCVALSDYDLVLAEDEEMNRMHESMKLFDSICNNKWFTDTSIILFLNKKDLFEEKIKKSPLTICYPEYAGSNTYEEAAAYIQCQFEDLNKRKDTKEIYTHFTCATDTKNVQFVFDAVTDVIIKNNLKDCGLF

Row | Compound | pIC50 [1] | GTPase-Glo GTP turnover assay with purified CB1 and Gi1, 20 uM ligand [2]
1 | BODIPY517/547-genistein | 6.43 | 
2 | C[C@H](NC(=O)C(C)(C)Oc1ccc(C(F)(F)F)cn1)[C@@H](Cc1ccc(Cl)cc1)c1cccc(C#N)c1 [taranabant] |  | GTPase-Glo assay reveals rimonabant and taranabant to decrease GTP turnover compared with Apo
